From article PMC4441592 (Neuron, 2015) come the findings set out here.

In assay [1] the target is T1, KOR (Homo sapiens, UniProt P41145). Kind of assay: cell-based.
Assay [2] has as its target KORD (D138N hKOR) (Homo sapiens, UniProt P41145, D138N). Kind of assay: cell-based. As to conditions: EC50(nM).
In assay [3] the test system is AGRP-ires-cre mice, ARC^AgRP neurons with hM3Dq and KORD. The experiment in a line: Feeding study with multiplexed KOR and hM3Dq DREADD. In kind it is in vivo. As to conditions: hM3Dq and KORD in ARC^AgRP neurons; CNO 1mg/kg i.p.
The test system of assay [4] is VGAT-ires-Cre mice, VTA/SN^VGAT neurons. Kind of assay: Locomotor activity. In kind it is in vivo.
Assay [5] addresses KORD (Homo sapiens, UniProt P41145, D138N). Kind of assay: Radioligand competition binding, KORD. (In general: Displacement assays read how much labelled ligand stays bound in the presence of the test substance.)
Assay [6] addresses T1, KOR. Kind of assay: [3H]-diprenorphine radioligand competition binding, WT KOR.

Peptide text beside a SMILES is read from it.

As to `CSCC[C@H](NC(=O)[C@H](Cc1ccccc1)NC(=O)CNC(=O)CNC(=O)[C@@H](N)Cc1ccc(O)cc1)C(=O)N[C@@H](CCCNC(=N)N)C(=O)N[C@@H](CCCNC(=N)N)C(=O)N[C@H](C(=O)NCC(=O)N[C@@H](CCCNC(=N)N)C(=O)N1CCC[C@H]1C(=O)N[C@@H](CCC(=O)O)C(=O)O)C(C)C` [BAM 12] (H-YGGFMRRVGRPE-OH), the Emax (in general, the size of the effect at its maximum, as opposed to the concentration needed) in assay [1] stood at 99%. The EC50 (in general, the concentration giving half of the maximal effect) in assay [1] (EC50(nM)) was 101 nM; in assay [1] (pEC50 ± SEM), 102 nM; in assay [2], greater than 10000 nM.
As to `CC(C)C[C@H](NC(=O)[C@H](Cc1ccccc1)NC(=O)CNC(=O)CNC(=O)[C@@H](N)Cc1ccc(O)cc1)C(=O)N[C@@H](CCCNC(=N)N)C(=O)N[C@@H](CCCNC(=N)N)C(=O)N[C@@H](CCC(N)=O)C(=O)N[C@@H](Cc1ccccc1)C(=O)N[C@@H](CCCCN)C(=O)N[C@H](C(=O)N[C@H](C(=O)N[C@H](C(=O)O)[C@@H](C)O)C(C)C)C(C)C` [Dynorphin B(1-13)], the Emax in assay [1] came out at 100%.
Consider `CSCC[C@H](NC(=O)[C@H](Cc1ccccc1)NC(=O)CNC(=O)CNC(=O)[C@@H](N)Cc1ccc(O)cc1)C(=O)N[C@@H](CCCNC(=N)N)C(=O)N[C@@H](CCCNC(=N)N)C(=O)N[C@H](C(=O)NCC(=O)N[C@@H](CCCNC(=N)N)C(=O)N1CCC[C@H]1C(=O)N[C@@H](CCC(=O)O)C(=O)N[C@@H](Cc1c[nH]c2ccccc12)C(=O)N[C@@H](Cc1c[nH]c2ccccc12)C(=O)N[C@@H](CCSC)C(=O)N[C@@H](CC(=O)O)C(=O)N[C@@H](Cc1ccc(O)cc1)C(=O)N[C@@H](CCC(N)=O)C(=O)O)C(C)C` [BAM 18] (H-YGGFMRRVGRPEWWMDYQ-OH), for which the Emax in assay [1] was 97%. In addition, the EC50 in assay [1] (EC50(nM)) was 85 nM; in assay [1] (pEC50 ± SEM), 85.1 nM; in assay [2] it was greater than 10000 nM.
In the case of `CC(C)C[C@H](NC(=O)[C@H](Cc1ccccc1)NC(=O)CNC(=O)CNC(=O)[C@@H](N)Cc1ccc(O)cc1)C(=O)N[C@@H](CCCNC(=N)N)C(=O)N[C@@H](CCCCN)C(=O)N[C@@H](Cc1ccc(O)cc1)C(=O)N1CCC[C@H]1C(=O)N[C@@H](CCCCN)C(=O)O` [α-Neoendrophin] (H-YGGFLRKYPK-OH), the Emax in assay [1] came to 95%. Also, the results for the EC50 in assay [1] (EC50(nM)), in assay [1] (pEC50 ± SEM) and in assay [2] were 64 nM, 64.6 nM and greater than 10000 nM, respectively.
`CSCC[C@H](NC(=O)[C@H](Cc1ccccc1)NC(=O)CNC(=O)CNC(=O)[C@@H](N)Cc1ccc(O)cc1)C(=O)N[C@@H](CCCNC(=N)N)C(=O)N[C@@H](CCCNC(=N)N)C(=O)N[C@H](C(=O)NCC(=O)N[C@@H](CCCNC(=N)N)C(=O)N1CCC[C@H]1C(=O)N[C@@H](CCC(=O)O)C(=O)N[C@@H](Cc1c[nH]c2ccccc12)C(=O)N[C@@H](Cc1c[nH]c2ccccc12)C(=O)N[C@@H](CCSC)C(=O)N[C@@H](CC(=O)O)C(=O)N[C@@H](Cc1ccc(O)cc1)C(=O)N[C@@H](CCC(N)=O)C(=O)N[C@@H](CCCNC(=N)N)C(=O)N[C@@H](Cc1ccc(O)cc1)C(=O)NCC(=O)O)C(C)C` [BAM 22] (H-YGGFMRRVGRPEWWMDYQRYG-OH) showed an Emax in assay [1] of 95%. Besides, the EC50 in assay [1] (EC50(nM)) was 93 nM; in assay [1] (pEC50 ± SEM), 93.3 nM; in assay [2], greater than 10000 nM.
Consider `CSCC[C@H](NC(=O)[C@H](Cc1ccccc1)NC(=O)CNC(=O)CNC(=O)[C@@H](N)Cc1ccc(O)cc1)C(=O)O` [Met-enkephalin], for which, in assay [1], the Emax is 79%.
In the case of `C[N+]1([O-])CCN(C2=Nc3cc(Cl)ccc3Nc3ccccc32)CC1` [CNO, clozapine-N-oxide], in assay [3], the “light cycle food intake” value was 0.75 ± 0.03 g. For the same molecule, the “locomotor activity, same session” value in assay [4] (dual DREADD mice, 3.0 mg/kg CNO) is recorded as “significant locomotor depression”. In addition, in assay [4] (mCherry in VTA/SN^VGAT neurons, 3.0 mg/kg i.p.), the “locomotor activity in control mice” value was “did not affect behavior”. Further, in assay [4] (mice expressing both KORD and hM3Dq in VTA/SN^VGAT neurons, 3.0 mg/kg, different testing sessions), the “locomotor activity vs vehicle” value is “decreased locomotor activity”.
In assay [1], `CC[C@H](C)[C@H](NC(=O)[C@H](C)NC(=O)[C@H](CC(N)=O)NC(=O)[C@H](CCCCN)NC(=O)[C@H](Cc1ccccc1)NC(=O)[C@H](CC(C)C)NC(=O)[C@@H](NC(=O)[C@@H](NC(=O)[C@H](CC(C)C)NC(=O)[C@@H]1CCCN1C(=O)[C@@H](NC(=O)[C@H](CCC(N)=O)NC(=O)[C@H](CO)NC(=O)[C@H](CCCCN)NC(=O)[C@H](CCC(=O)O)NC(=O)[C@H](CO)NC(=O)[C@@H](NC(=O)[C@H](CCSC)NC(=O)[C@H](Cc1ccccc1)NC(=O)CNC(=O)CNC(=O)[C@@H](N)Cc1ccc(O)cc1)[C@@H](C)O)[C@@H](C)O)C(C)C)[C@@H](C)O)C(=O)N[C@H](C(=O)N[C@@H](CCCCN)C(=O)N[C@@H](CC(N)=O)C(=O)N[C@@H](C)C(=O)N[C@@H](Cc1ccc(O)cc1)C(=O)N[C@@H](CCCCN)C(=O)N[C@@H](CCCCN)C(=O)NCC(=O)N[C@@H](CCC(=O)O)C(=O)O)[C@@H](C)CC` [β-Endorphin (1-31)] had an Emax of 100%. In addition, the EC50 in assay [1] (EC50(nM)) is 706 nM; in assay [1] (pEC50 ± SEM), 708 nM; in assay [2] it was greater than 10000 nM.
The corresponding values for `CC[C@H](C)[C@H](NC(=O)[C@H](C)NC(=O)[C@H](CC(N)=O)NC(=O)[C@H](CCCCN)NC(=O)[C@H](Cc1ccccc1)NC(=O)[C@H](CC(C)C)NC(=O)[C@@H](NC(=O)[C@@H](NC(=O)[C@H](CC(C)C)NC(=O)[C@@H]1CCCN1C(=O)[C@@H](NC(=O)[C@H](CCC(N)=O)NC(=O)[C@H](CO)NC(=O)[C@H](CCCCN)NC(=O)[C@H](CCC(=O)O)NC(=O)[C@H](CO)NC(=O)[C@@H](NC(=O)[C@H](CCSC)NC(=O)[C@H](Cc1ccccc1)NC(=O)CNC(=O)CNC(=O)[C@@H](N)Cc1ccc(O)cc1)[C@@H](C)O)[C@@H](C)O)C(C)C)[C@@H](C)O)C(=O)N[C@H](C(=O)N[C@@H](CCCCN)C(=O)N[C@@H](CC(N)=O)C(=O)N[C@@H](C)C(=O)N[C@@H](Cc1ccc(O)cc1)C(=O)O)[C@@H](C)CC` [β-Endorphin (1-27)] (H-YGGFMTSEKSQTPLVTLFKNAIIKNAY-OH; N-terminus and C-terminus assumed) are 100%, 700 nM, 708 nM and greater than 10000 nM.
`CC[C@H](C)[C@H](NC(=O)[C@H](CCCNC(=N)N)NC(=O)[C@H](CCCNC(=N)N)NC(=O)[C@H](CC(C)C)NC(=O)[C@H](Cc1ccccc1)NC(=O)CNC(=O)CNC(=O)[C@@H](N)Cc1ccc(O)cc1)C(=O)O` [Dynorphin A(1-8)] had an Emax in assay [1] of 94%.
`CSCC[C@H](NC(=O)[C@H](Cc1ccccc1)NC(=O)CNC(=O)CNC(=O)[C@@H](N)Cc1ccc(O)cc1)C(=O)N[C@@H](CCCNC(=N)N)C(=O)N[C@@H](CCCNC(=N)N)C(=O)N[C@H](C(=O)NCC(=O)N[C@@H](CCCNC(=N)N)C(=O)N1CCC[C@H]1C(=O)N[C@@H](CCC(=O)O)C(=O)N[C@@H](Cc1c[nH]c2ccccc12)C(=O)N[C@@H](Cc1c[nH]c2ccccc12)C(=O)N[C@@H](CCSC)C(=O)N[C@@H](CC(=O)O)C(=O)N[C@@H](Cc1ccc(O)cc1)C(=O)N[C@@H](CCC(N)=O)C(=O)N[C@@H](CCCNC(=N)N)C(=O)N[C@@H](Cc1ccc(O)cc1)C(=O)NCC(=O)NCC(=O)N[C@@H](Cc1ccccc1)C(=O)N[C@@H](CC(C)C)C(=O)O)C(C)C` [Peptide E] (H-YGGFMRRVGRPEWWMDYQRYGGFL-OH) returned an Emax in assay [1] of 95%. The EC50 in assay [1] (EC50(nM)) was 65 nM; in assay [1] (pEC50 ± SEM), 66.1 nM; in assay [2], greater than 10000 nM.
For `CC[C@H](C)[C@H](NC(=O)[C@H](CCCNC(=N)N)NC(=O)[C@H](CCCNC(=N)N)NC(=O)[C@H](CC(C)C)NC(=O)[C@H](Cc1ccccc1)NC(=O)CNC(=O)CNC(=O)[C@@H](N)Cc1ccc(O)cc1)C(=O)N[C@@H](CCCNC(=N)N)C(=O)N1CCC[C@H]1C(=O)N[C@@H](CCCCN)C(=O)N[C@@H](CC(C)C)C(=O)N[C@@H](CCCCN)C(=O)O` [Dynorphin A(1-13)], the Ki (as a rule, the dissociation constant of the complex between target and ligand, obtained from inhibition or displacement) in assay [5] is 1620 nM; in assay [6], 3.16 nM. Besides, the EC50 was 19 nM in assay [1] (EC50(nM)), 19.5 nM in assay [1] (pEC50 ± SEM) and greater than 10000 nM in assay [2].
`CC(C)C[C@H](NC(=O)[C@H](Cc1ccccc1)NC(=O)CNC(=O)CNC(=O)[C@@H](N)Cc1ccc(O)cc1)C(=O)N[C@@H](CCCNC(=N)N)C(=O)O` [Dynorphin A(1-6)] (H-YGGFLR-OH) yielded a maximum response (Emax) in assay [1] of 86%.
The same measure, in the same setting: to `CSCC[C@H](NC(=O)[C@H](Cc1ccccc1)NC(=O)CNC(=O)CNC(=O)[C@@H](N)Cc1ccc(O)cc1)C(=O)N[C@@H](CCCNC(=N)N)C(=O)N[C@@H](Cc1ccccc1)C(=O)O` [Met-enkephalin-Arg-Phe] (H-YGGFMRF-OH) belongs 99%.
Turning to `CSCC[C@H](NC(=O)[C@H](Cc1ccccc1)NC(=O)CNC(=O)CNC(=O)[C@@H](N)Cc1ccc(O)cc1)C(=O)N[C@@H](CCCNC(=N)N)C(=O)N[C@@H](CCCNC(=N)N)C(=O)N[C@H](C(N)=O)C(C)C` [Metorphamide], the Emax in assay [1] amounted to 97%. The EC50 in assay [1] (EC50(nM)) was 108 nM; in assay [1] (pEC50 ± SEM) it was 102 nM; in assay [2], greater than 10000 nM.
Turning to `CC[C@H](C)[C@H](NC(=O)[C@H](CCCNC(=N)N)NC(=O)[C@H](CCCNC(=N)N)NC(=O)[C@H](CC(C)C)NC(=O)[C@H](Cc1ccccc1)NC(=O)CNC(=O)CNC(=O)[C@@H](N)Cc1ccc(O)cc1)C(=O)N[C@@H](CCCNC(=N)N)C(=O)O` [Dynorphin A(1-9)] (H-YGGFLRRIR-OH), the Emax in assay [1] worked out at 93%.
Turning to `CC(C)C[C@H](NC(=O)[C@H](Cc1ccccc1)NC(=O)CNC(=O)CNC(=O)[C@@H](N)Cc1ccc(O)cc1)C(=O)N[C@@H](CCCNC(=N)N)C(=O)N[C@@H](CCCNC(=N)N)C(=O)O` [Dynorphin A(1-7)], in assay [1], the Emax was found to be 97%.
Take `CC[C@H](C)[C@H](NC(=O)[C@H](CCCN=C(N)N)NC(=O)[C@H](CCCN=C(N)N)NC(=O)[C@H](CC(C)C)NC(=O)[C@H](Cc1ccccc1)NC(=O)CNC(=O)CNC(=O)[C@@H](N)Cc1ccc(O)cc1)C(=O)N[C@@H](CCCN=C(N)N)C(=O)O` [Dynorphin A(1-9)] (H-YGGFLRRIR-OH): the EC50 in assay [1] (EC50(nM)) was 127 nM; in assay [1] (pEC50 ± SEM) it was 129 nM; in assay [2], greater than 10000 nM.
